Laboratory results reported in patent publication US20250152585A1, “PHARMACEUTICAL COMPOUND” (Duke Street Bio Limited, priority 2022, published 2025).
Read-outs that look alike come from different tables or passages of the source.

Columns and labels:
[1] = rodent models; compared with first-generation PARP inhibitors; Illuzzi et al. 2022; cited from earlier work
[2] = tested on: PARP1; details: Johannes et al. J. Med. Chem. 2021; cited from earlier work
[3] = target: T1, PARP2 (Homo sapiens, UniProt Q9UGN5); assay: NanoBRET cellular target occupancy assay, PARP2; type: cell-based; details: HEK293 cells transiently transfected with PARP2-NanoLuc fusion; tracer 2 nM; 2 hours at 37° C.; Kd by Cheng-Prussoff
T1 construct: host or cells: HEK293
Excerpt: NanoBRET Cellular Target Occupancy Assay

[4] = target: T2, full length N-terminally FLAG-tagged PARP1 (Homo sapiens, UniProt P09874); assay: PARP1 biochemical DELFIA assay (auto-PARylation); parameters: recombinant full length human N-terminally FLAG-tagged PARP1
[5] = target: T3, PARP1 (Homo sapiens, UniProt P09874); assay: NanoBRET cellular target occupancy assay, PARP1; type: cell-based; details: for Kd: HEK293 cells transiently transfected with PARP1-NanoLuc fusion, tracer 11 nM, 2 hours at 37° C., Kd by Cheng-Prussoff; for Selectivity: NanoBRET, PARP1 over PARP2, Kd (PARP2)/Kd (PARP1)
T3 construct: host or cells: HEK293

[6] = target: T4, N-terminally FLAG-tagged PARP2 (amino acids 1-583) (Homo sapiens, UniProt Q9UGN5); assay: PARP2 probe displacement HTRF assay; type: binding; details: binned Kd
T4 construct: N-terminally FLAG-tagged PARP2 (amino acids 1-583)
Method: Data analysis was performed identical as for PARP1.

[7] = target: T2, full length N-terminally FLAG-tagged PARP1; assay: PARP1 probe displacement HTRF assay; details: for Selectivity: PARP1 over PARP2, ratio Kd (PARP2)/Kd (PARP1); for Kd: binned Kd
[8] = binned IC50, biochemical auto-PARylation assay
[9] = read-out: PARP1 HTRF, probe displacement HTRF
[10] = binned IC50, PARP1 biochemical DELFIA assay
[11] = read-out: PARP1 HTRF, PARP1 probe displacement HTRF
[12] = PARP1 HTRF, probe displacement HTRF

T3 sequence (P09874 whole entry, the tested form may be a part): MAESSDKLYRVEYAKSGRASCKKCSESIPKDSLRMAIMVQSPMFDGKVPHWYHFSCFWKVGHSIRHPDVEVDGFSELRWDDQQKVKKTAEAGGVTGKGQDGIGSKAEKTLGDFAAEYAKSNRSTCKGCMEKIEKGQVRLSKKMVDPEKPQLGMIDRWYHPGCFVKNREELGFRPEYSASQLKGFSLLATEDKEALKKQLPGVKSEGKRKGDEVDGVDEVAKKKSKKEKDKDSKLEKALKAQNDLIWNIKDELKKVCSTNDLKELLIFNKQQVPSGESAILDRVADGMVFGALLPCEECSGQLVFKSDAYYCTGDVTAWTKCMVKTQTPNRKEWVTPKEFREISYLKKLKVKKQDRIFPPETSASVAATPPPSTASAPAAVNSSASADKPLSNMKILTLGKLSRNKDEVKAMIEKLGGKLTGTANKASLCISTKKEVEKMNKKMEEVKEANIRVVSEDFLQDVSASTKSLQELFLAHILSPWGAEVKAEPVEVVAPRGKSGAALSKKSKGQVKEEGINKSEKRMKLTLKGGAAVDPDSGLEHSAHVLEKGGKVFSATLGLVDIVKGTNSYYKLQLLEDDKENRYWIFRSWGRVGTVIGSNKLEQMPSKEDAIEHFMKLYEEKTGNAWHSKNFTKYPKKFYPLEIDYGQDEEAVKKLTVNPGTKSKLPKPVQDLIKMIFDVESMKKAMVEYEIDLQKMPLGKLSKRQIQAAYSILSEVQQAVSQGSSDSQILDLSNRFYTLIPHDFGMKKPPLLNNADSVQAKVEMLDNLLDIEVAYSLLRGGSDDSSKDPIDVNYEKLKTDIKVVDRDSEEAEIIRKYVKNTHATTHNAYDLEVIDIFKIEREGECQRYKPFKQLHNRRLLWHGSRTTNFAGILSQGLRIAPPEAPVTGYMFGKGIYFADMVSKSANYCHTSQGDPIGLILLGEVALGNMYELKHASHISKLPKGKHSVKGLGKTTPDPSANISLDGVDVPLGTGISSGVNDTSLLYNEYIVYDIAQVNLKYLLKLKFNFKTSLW
T2 sequence (P09874 whole entry, the tested form may be a part): as above
T4 sequence (Q9UGN5 whole entry, the tested form may be a part): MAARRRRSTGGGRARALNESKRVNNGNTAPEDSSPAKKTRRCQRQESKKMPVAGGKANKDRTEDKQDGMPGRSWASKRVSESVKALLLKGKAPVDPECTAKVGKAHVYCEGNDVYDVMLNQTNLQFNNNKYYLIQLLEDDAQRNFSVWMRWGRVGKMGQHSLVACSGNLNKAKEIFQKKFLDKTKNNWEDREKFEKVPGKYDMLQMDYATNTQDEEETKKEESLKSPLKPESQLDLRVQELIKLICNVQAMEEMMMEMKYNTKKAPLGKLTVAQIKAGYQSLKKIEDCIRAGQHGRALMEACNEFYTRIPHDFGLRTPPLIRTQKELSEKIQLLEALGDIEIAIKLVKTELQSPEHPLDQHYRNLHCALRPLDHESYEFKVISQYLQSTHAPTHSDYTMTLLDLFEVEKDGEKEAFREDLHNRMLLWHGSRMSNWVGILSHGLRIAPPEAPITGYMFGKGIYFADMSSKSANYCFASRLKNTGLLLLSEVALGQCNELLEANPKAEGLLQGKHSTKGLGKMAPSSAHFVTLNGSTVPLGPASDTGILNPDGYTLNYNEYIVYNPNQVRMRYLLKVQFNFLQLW
T1 sequence (Q9UGN5 whole entry, the tested form may be a part): as above

Kd [3]	IC50 [4, 8]	Kd [5]	Kd ([6]; probe displacement HTRF)	Kd [7, 9]	IC50 [4, 10]	Kd ([6]; PARP2 probe displacement HTRF)	Kd [7, 11]	Kd ([7]; PARP1 HTRF, PARP1 probe displacement HTRF)	Kd [7, 12]	Compound	haematotoxicity [1]	selectivity over PARP2 [2]	Selectivity [5]	Selectivity ([7]; probe displacement HTRF)
										CCc1cc2ncc(CN3CCN(c4ccc(C(=O)NC)nc4)CC3)cc2[nH]c1=O [AZD5305]	significantly less haematotoxicity	500 fold		
100 to 1000 nM	< 10 nM	< 10 nM	100 to 1000 nM	< 10 nM						CCc1ccc(C2CCN(C3CCN(c4ccc(C(=O)NCCF)nc4F)CC3)C2)[nH]c1=O (single isomer, unassigned) [Compound 322b]			+++ (+++ indicate a value of at least 100)	+++ (+++ indicate a value of at least 100)
> 10000 nM		< 10 nM			< 10 nM	1000 to 10000 nM	< 10 nM			CNC(=O)c1ccc(N2CCC(N3CCC(c4nc5ccccc5c(=O)[nH]4)C3)CC2)c(F)n1 (racemic) [Compound 157rac]			+++ (+++ indicate a value of at least 100)	+++ (+++ indicate a value of at least 100)
1000 to 10000 nM		< 10 nM			< 10 nM	100 to 1000 nM	< 10 nM			CNC(=O)c1ccc(N2CCC(N3CCC(c4cc5ccc(F)cc5c(=O)[nH]4)C3)CC2)c(F)n1 (single isomer, unassigned) [Compound 174a]			+++ (+++ indicate a value of at least 100)	+++ (+++ indicate a value of at least 100)
100 to 1000 nM		< 10 nM			< 10 nM	100 to 1000 nM	< 10 nM			CNC(=O)c1ccc(N2CCC(N3CCC(c4cc5ccc(F)cc5c(=O)[nH]4)C3)CC2)c(C)n1 (single isomer, unassigned) [Compound 196a]			+++ (+++ indicate a value of at least 100)	+++ (+++ indicate a value of at least 100)
1000 to 10000 nM		< 10 nM			< 10 nM	1000 to 10000 nM		< 10 nM		CNC(=O)c1ccc(N2CCC(N3CC4(c5nc6ccccc6c(=O)[nH]5)CC3C4)CC2)cn1 [Compound 192, N-methyl-5-(4-(4-(4-oxo-3,4-dihydroquinazolin-2-yl)-2-azabicyclo[2.1.1]hexan-2-yl)piperidin-1-yl)picolinamide]			+++ (+++ indicate a value of at least 100)	+++ (+++ indicate a value of at least 100)
> 10000 nM	< 10 nM	10 to 100 nM	> 10000 nM						< 10 nM	CNC(=O)c1ccc(N2CCC(N3CC4(c5nc6c(c(=O)[nH]5)CCC6)CC3C4)CC2)cn1 [Compound 295]			++ (++ indicates a value of 50 to less than 100)	+++ (+++ indicate a value of at least 100)
1000 to 10000 nM	< 10 nM	< 10 nM	100 to 1000 nM	< 10 nM						CCc1cc(Cl)c(C2CCN(C3CCN(c4ccc(C(=O)NC)nc4)CC3)C2)[nH]c1=O (racemic) [Compound 255rac]			+++ (+++ indicate a value of at least 100)	++ (++ indicates a value of 50 to less than 100)
100 to 1000 nM		10 to 100 nM			< 10 nM	< 10 nM	< 10 nM			CNC(=O)c1ccc(N2CCC(N3CCC(c4nc5[nH]cc(C(F)(F)F)c5c(=O)[nH]4)C3)CC2)cn1 (racemic) [Compound 150rac]			+ (+ indicates a value of 10 to less than 50)	− (− indicates a value of less than 10)
100 to 1000 nM	< 10 nM	10 to 100 nM	10 to 100 nM						< 10 nM	CNC(=O)c1ccc(N2CCC(N3CC4(c5nc6c(c(=O)[nH]5)CCCN6C)CC3C4)CC2)cn1 [Compound 330]			+ (+ indicates a value of 10 to less than 50)	+ (+ indicates a value of 10 to less than 50)
1000 to 10000 nM		< 10 nM			< 10 nM	100 to 1000 nM	< 10 nM			CCc1ccc(C2CCN(C3CCN(c4ccc(C(=O)NC)nc4)CC3)C2)[nH]c1=O (single isomer, unassigned) [Compound 72b]			+++ (+++ indicate a value of at least 100)	+++ (+++ indicate a value of at least 100)
1000 to 10000 nM	< 10 nM	< 10 nM	100 to 1000 nM	< 10 nM						CNC(=O)c1ccc(N2CCC(N3CCC(c4cc5ncc(Cl)cc5c(=O)[nH]4)C3)CC2)cn1 (racemic) [Compound 329rac]			+++ (+++ indicate a value of at least 100)	+++ (+++ indicate a value of at least 100)
1000 to 10000 nM	< 10 nM	100 to 1000 nM	100 to 1000 nM						< 10 nM	CNC(=O)c1ccc(N2CCC(N3CC4(c5nc6c(c(=O)[nH]5)CCCN6)CC3C4)CC2)cn1 [Compound 312]			++ (++ indicates a value of 50 to less than 100)	+++ (+++ indicate a value of at least 100)
> 10000 nM	< 10 nM	10 to 100 nM	> 10000 nM						< 10 nM	CNC(=O)c1ccc(N2CCC(N3CC4(c5nc6c(c(=O)[nH]5)CCC6)CC3C4)CC2)c(F)n1 [Compound 302]			+++ (+++ indicate a value of at least 100)	+++ (+++ indicate a value of at least 100)
100 to 1000 nM		< 10 nM			< 10 nM	100 to 1000 nM	< 10 nM			CNC(=O)c1ccc(N2CCC(N3CCC(c4cc5cccc(F)c5c(=O)[nH]4)C3)CC2)c(F)n1 (single isomer, unassigned) [Compound 184b, 6-fluoro-5-[4-[3-(8-fluoro-1-oxo-2H-isoquinolin-3-yl)pyrrolidin-1-yl]piperidin-1-yl]-N-methylpyridine-2-carboxamide]			+++ (+++ indicate a value of at least 100)	+++ (+++ indicate a value of at least 100)
100 to 1000 nM		< 10 nM			< 10 nM	10 to 100 nM	< 10 nM			CNC(=O)c1ccc(N2CCC(N3CCC(c4cc5c(Cl)cccc5c(=O)[nH]4)C3)CC2)cn1 (single isomer, unassigned) [Compound 137b]			+++ (+++ indicate a value of at least 100)	+ (+ indicates a value of 10 to less than 50)
1000 to 10000 nM		< 10 nM			< 10 nM	100 to 1000 nM	< 10 nM			CNC(=O)c1ccc(N2CCC(N3CCC(c4cc5ccc(F)cc5c(=O)[nH]4)C3)CC2)c(Cl)n1 (racemic) [Compound 175rac]			+++ (+++ indicate a value of at least 100)	+++ (+++ indicate a value of at least 100)
1000 to 10000 nM	< 10 nM	< 10 nM	1000 to 10000 nM	< 10 nM						CNC(=O)c1ccc(N2CCC(N3CCC(c4ccc(CC5CC5)c(=O)[nH]4)C3)CC2)c(F)n1 (single isomer, unassigned) [Compound 313b]			+++ (+++ indicate a value of at least 100)	+++ (+++ indicate a value of at least 100)
100 to 1000 nM	< 10 nM	< 10 nM	10 to 100 nM	< 10 nM						CNC(=O)c1ccc(N2CCC(N3CCC(c4cc5c(F)ccc(F)c5c(=O)[nH]4)C3)CC2)c(F)n1 (single isomer, unassigned) [Compound 323b]			+++ (+++ indicate a value of at least 100)	+++ (+++ indicate a value of at least 100)
100 to 1000 nM	< 10 nM	< 10 nM	100 to 1000 nM	< 10 nM						N#Cc1ccc(N2CCC(N3CCC(c4cc5cccc(F)c5c(=O)[nH]4)C3)CC2)cc1 (single isomer, unassigned) [Compound 314b]			+++ (+++ indicate a value of at least 100)	+++ (+++ indicate a value of at least 100)
1000 to 10000 nM		< 10 nM			< 10 nM	100 to 1000 nM	< 10 nM			CNC(=O)c1ccc(N2CCC(N3CCC(c4nc5ccc(Cl)cc5c(=O)[nH]4)C3)CC2)cn1 (single isomer, unassigned) [Compound 68a]			+++ (+++ indicate a value of at least 100)	+++ (+++ indicate a value of at least 100)
100 to 1000 nM	< 10 nM	< 10 nM	100 to 1000 nM	< 10 nM						N#Cc1ccc(N2CCC(N3CCC(c4cc5cccc(F)c5c(=O)[nH]4)C3)CC2)cn1 (single isomer, unassigned) [Compound 316a]			+++ (+++ indicate a value of at least 100)	+++ (+++ indicate a value of at least 100)
